This note sets out measurements from US6395786B1, “Sleep inducing agent” (Taisho Pharmaceutical Co., Ltd., priority 1998, dated 2002).

The test system of the assay is male rhesus monkeys. Description: Sleep-inducing test by cisternal administration (videotape sleep score). The assay is classed as in vivo. Conditions: 10 μg/monkey, 45 minutes after the administration, FIG. 2. Here is the method: [Sleep-inducing Test by Cisternal Administration]
Three male rhesus monkeys weighing 3.6-4.4 kg were individually placed in cages, and the behaviors of the animals were recorded by videotape for an hour before administration of the drug and for 5 hours after administration of the drug. Compound 32 and prostaglandin D2 methyl ester (PGD2) were each dissolved in saline solution and sterilized through a Millipore filter. The drugs were infused cisternally to the monkeys anesthetized with isohalothane inhalation. The doses were 1 μg and 10 μg/0.1 ml/monkey. The same doses of the vehicle were infused cisternally to give a control group. The test was carried out according to the following test schedule.
Week 1: Group treated with vehicle
Week 2: Group treated with 1 μg of Compound 32/monkey
Week 3: Group treated with 10 μg of Compound 32/monkey
Week 4: Group treated with 10 μg of PGD2/monkey
To determine the sleep, the period for which the monkey closed both eyes was measured at intervals of 15 minutes by playing back the recorded videotape, and the results were scored according to the following scales.

As to `CCCCC[C@H](O)/C=C/[C@H]1C(=O)C[C@H](O)[C@@H]1C/C=C\CCCC(=O)OC` [prostaglandin D2 methyl ester], the sleep action observed entry is on record as “transient sleep action”.
